# Results from patent publication US6632981B1, “DNA sequences encoding polypeptides having beta-1,3-glucanase activity” (Novartis Finance Corporation, priority 1988, dated 2003).
# Columns and labels:
# [1] = test system: chemically regulatable chimeric genes coding for GUS, AHAS or BT; experiment: Primer extension assay for mRNA of chemically regulatable chimeric genes; type: in vivo; conditions: callus or regenerated plant material from transgenic plants; level proportional to amount of regulator applied
# Procedure: 50 g of total RNA is lyophilized in a 500 l Eppendorf tube. The RNA is resuspended in 30 l of radiolabeled probe solution and heated to 70′ C. for 10 minutes. The tube is slowly cooled to 37° C. and allowed to incubate overnight. Without removing the tube from the 37° C. water bath, 2 l of 10×reverse-transcriptase buffer (500 mM Tris-HCl, pH 7.5, 400 mM KCl, 30 mM MgCl2), 1 l 5 mg/ml bovine serum albumin, 5 l 100 mM dithiothreitol, 5 l 10×dNTPs (10 mM of each dNTP in H2O), 3 l H 20, 2 l RNasin (80 units), and 2 l reverse transcriptase (400 units) are added and the reaction is incubated at 37° C. for 30 minutes. To stop the reaction, 5 l of 3 M sodium acetate, pH 5, and 150 l absolute ethanol are added. The tube is left at −20° C. for 30 minutes, the precipitate is collected by centrifugation, washed with 80% ethanol and allowed to air-dry. The precipitate is resuspended in 10-20 l of loading dye (90% formamide, 0.05% bromophenol blue, 0.05% xylene cyanol, 1 mM EDTA) and the extension products are separated on a 6% sequencing gel (Maniatis, T. et al., supra). Extension products are visualized by autoradiography.
# Plant materials induced and harvested as in Examples 140 to 142 are assayed for the induction of mRNA species by the isolation of RNA and the primer extension assay as described in Example 6.
# The level of mRNA is proportional to the amount of regulator applied.
# salicylic acid = experiment: Antagonism of the salicylic acid cell signal on exogenous application to a plant; type: in vivo; conditions: applied exogenously to a plant
# Excerpt: Those skilled in the art will appreciate that other means can be employed to achieve the same effect. For instance, a second method involves the expression or overexpression in a transformed plant of a gene encoding an enzyme which catalyzes the modification; e.g., degradation, of a metabolic precursor of the signal molecule so that the plant is rendered incapable of producing the signal molecule. A third method involves the external application to the plant of antagonists of the target cell signal. […] Instead, inhibition of the cell signal response is effected. […] See, Yang and Hoffman, Ann. Rev. Plant Physiol. 35:155-189 (1984).
# [2] = test system: PR-1a promoter fused to the GUS reporter gene; experiment: Chemical regulation of PR-1a promoter/GUS in nahG-expressing plants; type: in vivo; conditions: progeny of PR-1a promoter/GUS plants crossed to nahG-3, -8 and -10
# Excerpt: Consequently, the chemical regulation of the PR-1a gene promoter can be utilized without the activation of the endogenous cell signal SA.
# [3] = test system: PR-1a promoter fused to a gene encoding the delta-endotoxin of Bacillus thuringensis; experiment: Chemical regulation of PR-1a promoter/Bacillus thuringiensis delta-endotoxin gene in nahG-expressing plants; type: in vivo; conditions: progeny of PR-1a promoter/delta-endotoxin plants crossed to nahG-3, -8 and -10
# SAR response = experiment: Chemical induction of SAR in nahG-expressing plants; type: in vivo, Nicotiana tabacum cv Xanthi-nc; conditions: plants of lines nahG-3, -8 and -10 (blocked in SAR response to disease infection) treated with the inducing chemical
# Excerpt: Three lines, nahG-3, -8 and -10, were shown above to express high levels of nahG mRNA and salicylate hydroxylase protein, and to be blocked in their SAR response to disease infection.
# [4] = test system: PR-1 promoter-LUC gene fusion; experiment: Chemical induction of the Arabidopsis PR-1 promoter-LUC gene fusion; type: in vivo
# Excerpt: pAtPR1-R was cleaved with XhoI and SacI and transferred to SalI/SacI cleaved pCIB200 to create a binary vector construction (pAtPR1-S) suitable for Arabidopsis transformation (see example 28). pAtPR1-S was then transferred to Agrobacterium tumefaciens strain A136/pCIB542 for transfer to Arabidopsis Dijon-0 using the method described by Wen-jun and Forde, Nucl. Acids Res. 17: 8385-8386 (1989). T2 or […] lines carrying the PR1-LUC transgene in the homozygous state were generated for chemical induction analysis.
# Leaves of transgenic Arabidopsis lines carrying the PR-1 promoter-LUC gene fusion were treated by spraying with 0.15 g/ml INA (isonicotinic acid) for 48 h. Five days later, sprayed leaves were analyzed for luciferase activity using the Promega Luciferase Assay System (Cat. #E 1500). […] In other assays, luciferase activity was measured by imaging lines for bioluminescence using intensified cameras (VIM) and photon-counting image processors (ARGUS-50 or ARGUS-100) from Hamamatsu Photonic Systems (Bridgewater, N.J.). Leaves were sprayed with INA and subsequently with a 5 mM solution of D-luciferin (Analytical Bioluminescence Laboratories, San Diego, Calif.) 24 h before and then immediately before imaging.
smiles,measurement,setting,value
"CCCOC(=O)c1cccc2nnsc12 [n-propyl benzo-1,2,3-thiadiazole-7-carboxylate]","level of mRNA of the chimeric gene (GUS, AHAS or BT primer), primer extension assay",[1],elevated levels of mRNA
CC[Si](CC)(CC)c1ccccc1C(=O)O [o-triethylsilyl benzoic acid],effect on the salicylic acid cell signal,salicylic acid,antagonistic effect
"O=C(O)c1cccc2nnsc12 [benzo-1,2,3-thiadiazole-7-carboxylic acid]",GUS expression,[2],express GUS
same,"level of mRNA of the chimeric gene (GUS, AHAS or BT primer), primer extension assay",[1],elevated levels of mRNA
same,endotoxin gene expression,[3],express the endotoxin gene
same,SAR response,SAR response,shown to possess the SAR response
"O=C(OCc1ccccc1)c1cccc2nnsc12 [benzyl benzo-1,2,3-thiadiazole-7-carboxylate]","level of mRNA of the chimeric gene (GUS, AHAS or BT primer), primer extension assay",[1],elevated levels of mRNA
"O=C(O)c1cc(Cl)nc(Cl)c1 [2,6-dichloroisonicotinic acid]","level of mRNA of the chimeric gene (GUS, AHAS or BT primer), primer extension assay",[1],elevated levels of mRNA
"CCC(C)N(N)C(=O)c1cccc2nnsc12 (centres unmarked) [benzo-1,2,3-thiadiazole-7-carboxylic acid N-sec-butylhydrazide]","level of mRNA of the chimeric gene (GUS, AHAS or BT primer), primer extension assay",[1],elevated levels of mRNA
"O=C(O)c1ccncc1 [INA, isonicotinic acid]","bioluminescence (imaging, photon counting)","[4]; compared to water-treated controls, D-luciferin 5 mM",strongly induced bioluminescence
same,"luciferase activity, induction over controls","[4]; leaves sprayed with 0.15 g/ml for 48 h, analyzed five days later, Promega Luciferase Assay System",144 fold
